Earlier results on 3 compounds are cited in article PMC13050480, “Preclinical Development of GT-14, a Novel Inhibitor of Gαi2 Protein: Comprehensive Evaluation of Physicochemical, Metabolic Characteristics and Tissue Distribution” (The AAPS journal, 2025).

For orientation: half-life means the time in which the quantity being followed falls by half.

One data set has as its system albumin. Further details: method as in PMID 27106175. The conditions noted are these: cited from earlier work.
The subject of a further data set is α1-acid glycoprotein. Also on record: method as in PMID 27106175. Conditions: cited from earlier work.
The conditions of data set [1]: cited from earlier work.

On to `C[C@]12CC[C@H](O)CC1=CC[C@@H]1[C@@H]2CC[C@]2(C)C(c3cccnc3)=CC[C@@H]12` [Abiraterone], for which the protein-bound to albumin with albumin is recorded as 95.6–99.9%. In addition, in the data set on α1-acid glycoprotein, the “protein-bound to α1-acid glycoprotein” value is given as 89.4–95.6%. The “volume of distribution (Vd)” value in data set [1] is ~ 5630 L.

Consider `CC(O)(CS(=O)(=O)c1ccc(F)cc1)C(=O)Nc1ccc(C#N)c(C(F)(F)F)c1` (stereo not shown) [Bicalutamide], for which, in data set [1], the half-life is 25 to 30 h; the oral bioavailability entry was “high oral bioavailability”; the “tissue distribution of [3H]-Bicalutamide” value was “preferential accumulation in the prostate, pituitary gland, and seminal vesicles, with limited brain penetration”.

Regarding `CNC(=O)c1ccc(N2C(=S)N(c3ccc(C#N)c(C(F)(F)F)c3)C(=O)C2(C)C)cc1F` [Enzalutamide], in data set [1], the “apparent oral volume of distribution (Vd/F)” value was “around 110 L”.
